Test results published in patent publication US8883856B2, “Compositions and methods for the treatment of inflammatory diseases using topoisomerase inhibitors” (priority 2000, dated 2014).
Where two headings read alike, the source gives them in different places.

Assays:
[1] = tested on: chorioallantoic membrane of the chick embryo; experiment: Angiogenesis in the chick chorioallantoic membrane (CAM assay); type: in vivo; details: for number of eggs (CAM's) with antiangiogenic activity None (score 0) / number of eggs (CAM's) with antiangiogenic activity Partial (score 1-2) / number of eggs (CAM's) with antiangiogenic activity Maximal (score 3): 48 hours
Source text: Sheets of sterile waxed paper were placed onto the window that was created in the air space and were used to prevent contamination and dehydration of the egg contents. These sheets, measuring 4 cm×4 cm, were sterilized by spraying them with 70% ethanol and allowing them to dry in the laminar flow hood. […] Using 70% ethanol and Kimwipes, the entire eggshell was wiped down to help clean and sanitize the outside of the egg. Inside a laminar flow hood, the egg was held with the blunt side up and a hole was made in the blunt end of the egg by carefully cracking the shell with the end of forceps. The shell remnants were gently removed with forceps to form a hole in the blunt end. This circular hole was made as large as 2 to 3 cm in diameter without damaging the inner membrane. Once the hole was created in the shell, the inner shell membrane (which houses the egg contents) was gently torn and removed using the forceps, taking care not to damage the chorioallantoic membrane (CAM) (which houses the yolk and developing chick embryo). The hole was then covered with the sheet of sterilized parafilm wax paper by gently stretching the parafilm and then placing it around the hole. The egg was then placed in the egg rack in the incubator (37° C.) and positioned in such a way as to prevent rotation. After 6 days each egg was removed one by one from the incubator (blunt side up), and the parafilm covering the window was removed for direct access to the CAM, which originates from the hind gut of the embryo. The drug-loaded polymer was placed onto the growing capillary bed of the CAM. The egg contents were then resealed with the parafilm sheet and placed back into the 37° C. incubator. […] The values of the avascular scale describe the following: […]

proteoglycan gene = experiment: Proteoglycan gene expression in chondrocytes; type: cell-based, calf
Source text: This assay measures the levels of RNA for the two metalloproteinases, collagenase and stromelysin. Over-expression of these genes results in excessive synthesis and secretion of these two enzymes from articular chondrocytes and may represent part of the pathophysiology of rheumatoid arthritis. Agents that inhibit over-expression of collagenase and stromelysin can be antiarthritc agents. […] Proteoglycan gene expression is part of the normal physiology of chondrocytes.
Primary chondrocyte culture was freshly isolated from calf cartilage. The cells were plated (at 2.5×10^6/mL) in 100×20 mm culture dishes and incubated in Ham's F12 medium containing 5% fetal bovine serum (FBS) overnight at 37° C. The cells were starved with serum-free medium overnight. The cells were pretreated with camptothecin at concentrations of 10^−6 M, 10^−7 M and 10^−8 M for 6 hours. Then IL-1 (20 ng/mL) was added to each plate and the plates were incubated for an additional 18 hours. Total RNA was isolated by the acidified guanidine isothiocyanate method and subjected to electrophoresis on a denatured gel. Denatured RNA samples (15 ug) were analyzed by gel electrophoresis in a 1% denaturing gel, transferred to a nylon membrane, and hybridized respectively with the ^32P-labelled collagenase cDNA probe, ^32P-labelled stromelycin cDNA probe, ^32P-labelled proteoglycan cDNA probe and ^32P-labelled glyceraldehyde phosphate dehydrogenase (PAGDH) cDNA. The PAGDH levels acted as an internal standard to ensure roughly equal loading. The experimental results on X-ray films were scanned and analyzed with HP ScanJet.

surgical adhesions = type: in vivo; details: for mean surgical adhesion score: 2.5% loaded crosslinked HA film, 8 days, scale 0 (no adhesions) to 3 (inseparable without cutting), control film mean 2.33; for surgical adhesion formation, in words: drug-loaded crosslinked HA films (camptothecin 2.5%, doxorubicin 2.5%, beta-lapachone 5%, curcumin 10%)
Procedure: The rat caecal-sidewall adhesion model was used to test efficacy of crosslinked hyaluroinc acid (HA) polymeric films loaded with one of the following compounds; camptothecin 2.5% loading (w/w to polymer), curcumin 10%, doxorubicin 2.5%, beta-lapachone at 5% or unloaded-no-drug control. Films of 2-2.5 cm^2 were prepared with each drug by the method described in example 10. ETO sterilized, and divided in half at the time of surgical implantation. Sham surgeries omitted the application of HA film as separate controls.
Sprague Dawley rats, 15 male and 15 female, weighing 250-400 g were anaesthetized with Halothane (5%) and maintained, by nose cone, on 1.5-2% Halothane. Surgeries were conducted under sterile conditions. The abdomen was shaved, scrubbed with an antiseptic wash, and opened at the linea alba with a 3 cm incision. A region of the abdominal cavity immediately opposite the large bowel was isolated with bowel clamps, and a #11 scalpel blade was used to score a section of the transversus muscle, describing a rectangle 1×1.5 cm. The muscle was stripped from the peritoneal sidewall with forceps, and minor bleeding was arrested by tamponade. The large bowel was then externalized with sterile swabs, and caecal contents evacuated into the large bowel. Both surfaces of the caecum were stroked, 45 times on each side, with a #10 scalpel blade to produce erythema and punctated bleeding. Each stroke spanned the caecal diameter (approximately 1 cm), and extended along 1.5 cm of the caecal extremity. In only one case did this abrasion procedure cause sustained bleeding requiring ligation. Following 90 blade strokes, the integrity of the tissue was confirmed, and caecum and large bowel were replaced in the pelvis.
The film was laid over the rectangular sidewall abrasion (except in the case of sham surgeries), covering the area of damaged tissue. The abraded caecum, relocated in its previous orientation, was than overlaid such that the entire sidewall wound and film were covered by it. Four tacking sutures were placed at the outer extremities of the abraded area of the caecum securing it to the intact peritoneal sidewall immediately outside the rectangular wound area. The abdomen was closed in two layers, and antibiotics administered intramuscularly before the animal regained consciousness.
. Adhesions over, and adjacent to the caecum were rated according to the following findings: 0: No adhesions connecting caecum to sidewall wound; 1: Filmy or stranded were separable by blunt dissection; 2: Cohesive adhesions attaching the caecum to the sidewall were separable by aggressive blunt dissection; 3: Adhesions inseparable without cutting, or without tearing/damaging caecum. Fractions were assigned where a variety of ratings seemed applicable.

[2] = summary over all concentrations tested in PCL or PCL-MePEG pellets

SMILES | number of eggs (CAM's) with antiangiogenic activity None (score 0) ([1]; 1.0% w/w in PCL pellet) | number of eggs (CAM's) with antiangiogenic activity Partial (score 1-2) ([1]; 1.0% w/w in PCL pellet) | number of eggs (CAM's) with antiangiogenic activity None (score 0) ([1]; 4.0% w/w in PCL pellet) | number of eggs (CAM's) with antiangiogenic activity Partial (score 1-2) ([1]; 4.0% w/w in PCL pellet) | inhibition of angiogenesis in the CAM, in words [1, 2] | proteoglycan expression (proteoglycan gene) | toxicity of drug-loaded hyaluronic acid films (surgical adhesions; rat, in vivo) | number of eggs (CAM's) with antiangiogenic activity Partial (score 1-2) ([1]; 0.5% w/w in PCL pellet) | number of eggs (CAM's) with antiangiogenic activity Partial (score 1-2) ([1]; 5.0% w/w in PCL pellet) | mean surgical adhesion score (surgical adhesions) | number of eggs (CAM's) with antiangiogenic activity Partial (score 1-2) ([1]; 2.0% w/w in PCL pellet) | surgical adhesion formation, in words (surgical adhesions; rats) | further results
CC1(C)CCC2=C(O1)c1ccccc1C(=O)C2=O [beta-lapachone] | 4 | 2 | 4 | 11 | inhibited angiogenesis in almost all CAM's | without excessive inhibition | did not induce any toxic side effects | – | – | – | – | – | number of eggs (CAM's) with antiangiogenic activity Maximal (score 3) ([1]; 4.0% w/w in PCL pellet): 6; inhibition of angiogenesis in the CAM, in words ([1]; 6% w/w in PCL): partial to full inhibition of angiogenesis; number of eggs (CAM's) with antiangiogenic activity Partial (score 1-2) ([1]; 60% in PCL pellet as printed): 10
CC[C@@]1(O)C(=O)OCc2c1cc1n(c2=O)Cc2cc3ccccc3nc2-1 [camptothecin] | 4 | 6 | – | – | extensive inhibition of angiogenesis | – | – | 12 | 20 | 0.95 | – | – | number of eggs (CAM's) with antiangiogenic activity None (score 0) ([1]; 0.1% w/w in PCL pellet): 7; number of eggs (CAM's) with antiangiogenic activity Partial (score 1-2) ([1]; 0.1% w/w in PCL pellet): 1; inhibition of angiogenesis in the CAM, in words ([1]; 0.5% (w/w to PCL)): strong evidence of inhibition of angiogenesis; number of eggs (CAM's) with antiangiogenic activity Maximal (score 3) ([1]; 0.5% w/w in PCL pellet): 2; number of eggs (CAM's) with antiangiogenic activity None (score 0) ([1]; 0.5% w/w in PCL pellet): 8; number of CAM's with full or partial inhibition ([1]; 5% (w/w to PCL)): 29; number of eggs (CAM's) with antiangiogenic activity Maximal (score 3) ([1]; 5.0% w/w in PCL pellet): 9; number of eggs (CAM's) with antiangiogenic activity None (score 0) ([1]; 5.0% w/w in PCL pellet): 3; proteoglycan expression (proteoglycan gene; 1×10^−7 M): without excessive inhibition; toxicity of drug-loaded hyaluronic acid films (surgical adhesions; films applied to abraded surgical site, rats): no associated toxicity
COc1cccc2c1C(=O)c1c(O)c3c(c(O)c1C2=O)C[C@@](O)(C(=O)CO)C[C@@H]3O[C@H]1C[C@H](N)[C@H](O)[C@H](C)O1 [doxorubicin] | – | – | – | 4 | partially inhibited angiogenesis in all but one CAM | – | did not induce any toxic side effects | 5 | 3 | 1.24 | 20 | inhibition of adhesion formation occurs | number of eggs (CAM's) with antiangiogenic activity None (score 0) ([1]; 2.0% w/w in PCL pellet): 1; inhibition of angiogenesis in the CAM, in words ([1]; 5% (w/w to PCL)): partial to full inhibition of angiogenesis; surgical adhesion formation, in words (surgical adhesions; rats, listed as dodxorubicin): major inhibition of surgical adhesion formation
COc1cc([C@@H]2c3cc4c(cc3[C@@H](O[C@@H]3O[C@@H]5CO[C@@H](C)O[C@H]5[C@H](O)[C@H]3O)[C@H]3COC(=O)[C@H]23)OCO4)cc(OC)c1O [etoposide] | – | – | 2 | 5 | inhibited angiogenesis in almost all CAM's treated | – | did not induce any toxic side effects | – | – | – | – | inhibition of adhesion formation occurs | number of eggs (CAM's) with antiangiogenic activity Partial (score 1-2) ([1]; 8.0% w/w in PCL pellet): 5; number of eggs (CAM's) with antiangiogenic activity Maximal (score 3) ([1]; 15.0% w/w in PCL pellet): 4; number of eggs (CAM's) with antiangiogenic activity Partial (score 1-2) ([1]; 15.0% w/w in PCL pellet): 9; number of CAM's showing full inhibition ([1]; all etoposide pellets (4%, 8%, 15% PCL; 10% PCL-MePEG)): five
CC1=CC(=O)c2ccccc2C1=O [menadione] | – | – | – | – | partial inhibition of angiogenesis in a number of CAM's | without excessive inhibition | – | – | – | – | Necrosis | – | generalized cytotoxicity in the CAM ([1]; drug-loaded PCL pellets): some evidence of necrosis in non-capillary cells and membrane thinning
CC1=CC(=O)c2c(O)cccc2C1=O [plumbagin] | – | Necrosis | – | – | partial inhibition of angiogenesis in a number of CAM's | – | – | – | – | – | – | – | generalized cytotoxicity in the CAM ([1]; in vivo): some evidence of necrosis in non-capillary cells and membrane thinning
